According to patent US20240254115A1 (ACONDICIONAMIENTO TARRASENSE, priority 2021, published 2024):

Columns and labels:
human σ1 receptor = molecular target: T1, human σ1 receptor (Homo sapiens, UniProt Q99720); assay: Human σ1 receptor radioligand assay; conditions: transfected HEK-293 membranes, 5 nM [3H](+)-pentazocine, 37° C. 120 minutes; + may also stand for 1-50% inhibition at 1 or 10 μM; read-out: Binding σ-1 Ki
T1 construct: expressed in transfected cells; host or cells: HEK-293
Method in brief: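 Membranes (7 μg) were incubated with 5 nM [3H](+)-pentazocine in 50 mM Tris-HCl pH 8 for 120 min at 37° C. Non-specific binding was defined with 10 μM haloperidol. Values are % inhibition at 1 or 10 μM or Ki from five concentrations, read by filtration and scintillation counting.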

human σ2/TMEM97 receptor = molecular target: T2, human σ2/TMEM97 receptor (Homo sapiens, UniProt Q5BJF2); assay: Binding assay to human σ2/TMEM97 receptor; conditions: transfected HEK-293 membranes, 10 nM [3H]-DTG, 25° C. 120 minutes; + may also stand for 1-50% inhibition at 1 or 10 μM; read-out: Binding σ-2 Ki
T2 construct: expressed in transfected cells; host or cells: HEK-293
Method in brief: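 Membranes from transfected HEK-293 cells (15 µg) were incubated with 10 nM [3H]-DTG in 50 mM Tris-HCl pH 8.0 for 120 min at 25 °C, with 10 µM haloperidol defining non-specific binding. Filtration and scintillation counting followed. Compounds tested as % inhibition at 1 or 10 µM, or at five concentrations for Ki.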

T2 sequence (Q5BJF2 whole entry): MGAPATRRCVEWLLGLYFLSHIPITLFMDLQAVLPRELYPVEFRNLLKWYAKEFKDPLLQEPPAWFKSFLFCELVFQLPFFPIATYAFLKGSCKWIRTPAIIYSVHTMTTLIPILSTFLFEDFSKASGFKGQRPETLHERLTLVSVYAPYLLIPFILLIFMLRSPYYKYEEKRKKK
T1 sequence (Q99720 whole entry): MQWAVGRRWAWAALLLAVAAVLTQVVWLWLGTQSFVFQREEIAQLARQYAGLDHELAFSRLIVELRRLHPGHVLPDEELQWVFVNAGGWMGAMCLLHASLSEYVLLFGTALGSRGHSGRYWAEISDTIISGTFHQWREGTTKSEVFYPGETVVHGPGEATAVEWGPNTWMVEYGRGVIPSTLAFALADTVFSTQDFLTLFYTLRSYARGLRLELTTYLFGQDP

Structure (SMILES) | Ki (human σ1 receptor) [nM] | Ki (human σ2/TMEM97 receptor) [nM]
CN(Cc1ccc(F)cc1)[C@H]1CC[C@H](NS(=O)(=O)c2ccc(N3CCOCC3)cn2)CC1 [Example 119, N-((1r,4r)-4-((4-Fluoro-benzyl)(methyl)amino)cyclo-hexyl)-5-morpholinopyridine-2-sulfonamide] | > 1000 | < 100
CC(C)(C)CCN1CCC2(CCCN(S(=O)(=O)c3ccc(N4CCOCC4=O)nc3)C2)CC1 [Example 120, 4-(5-((9-(3,3-Dimethylbutyl)-2,9-diazaspiro[5.5]undecan-2-yl)sulfonyl)pyridin-2-yl)morpholin-3-one] | 100 to 500 | < 100
CC(C)(C)CCN1CCC2(CCCN(S(=O)(=O)c3ccc(N4CCCC4=O)nc3)C2)CC1 [Example 121, 1-(5-((9-(3,3-Dimethylbutyl)-2,9-diazaspiro[5.5]undecan-2-yl)sulfonyl)pyridin-2-yl)pyrrolidin-2-one] | < 100 | < 100
CC(C)(C)CCN1CCC2(CCCN(S(=O)(=O)c3ccc(N4CCCCC4=O)nc3)C2)CC1 [Example 122, 1-(5-((9-(3,3-Dimethylbutyl)-2,9-diazaspiro[5.5]undecan-2-yl)sulfonyl)pyridin-2-yl)piperidin-2-one] | 100 to 500 | < 100
CC(C)(C)CCN1CCC2(CCCN(S(=O)(=O)c3ccc(N4CCOC4=O)nc3)C2)CC1 [Example 123, 3-(5-((9-(3,3-Dimethylbutyl)-2,9-diazaspiro[5.5]undecan-2-yl)sulfonyl)pyridin-2-yl)oxazolidin-2-one] | 100 to 500 | < 100
CN(CC(C)(C)C)C1CCN(S(=O)(=O)c2ccc(N3CCOC3=O)nc2)CC1 [Example 124, 3-(5-((4-(Methyl(neopentyl)amino)pi-peridin-1-yl)sulfonyl)pyridin-2-yl)oxazolidin-2-one] | 100 to 500 | > 1000
N#Cc1ccc(CN2CCC3(CCCN(S(=O)(=O)c4ccc(N5CCOC5=O)nc4)C3)CC2)c(F)c1 [Example 125, 3-Fluoro-4-((2-((6-(2-oxooxazolidin-3-yl)pyridin-3-yl)sulfonyl)-2,9-diazaspiro[5.5]undecan-9-yl)methyl)benzonitrile] | < 100 | < 100
O=C1CCCN1c1ccc(S(=O)(=O)N2CCCC3(CCN(CC4CCOCC4)CC3)C2)cn1 [Example 126, 1-(5-((9-((Tetrahydro-2H-pyran-4-yl)methyl)-2,9-diazaspiro[5.5]undecan-2-yl)sulfonyl)pyridin-2-yl)pyrrolidin-2-one] | < 100 | < 100
O=C1OCCN1c1ccc(S(=O)(=O)N2CCCC3(CCN(CC4CCOCC4)CC3)C2)nc1 [Example 127, 3-(6-((9-((Tetrahydro-2H-pyran-4-yl)methyl)-2,9-diazaspiro[5.5]undecan-2-yl)sulfonyl)pyridin-3-yl)oxazolidin-2-one] | < 100 | < 100
O=C1OCCN1c1ccc(S(=O)(=O)N2CCC3(CCN(CC4CCOCC4)CC3)CC2)cn1 [Example 128, 3-(5-((9-((Tetrahydro-2H-pyran-4-yl)methyl)-3,9-diazaspiro[5.5]undecan-3-yl)sulfonyl)pyridin-2-yl)oxazolidin-2-one] | 500 to 1000 | < 100
CN(CC1CCOCC1)C1CCN(S(=O)(=O)c2ccc(N3CCOC3=O)nc2)CC1 [Example 129, 3-(5-((4-(Methyl((tetrahydro-2H-pyran-4-yl)methyl)amino)piperidin-1-yl)sulfonyl)pyridin-2-yl)oxazolidin-2-one] | 100 to 500 | 100 to 500
O=S(=O)(c1ccc(N2CCC(F)(F)CC2)nc1)N1CCCC2(CCN(Cc3ccccc3)CC2)C1 [Example 130, 9-Benzyl-2-((6-(4,4-difluoropiperidin-1-yl)pyridin-3-yl)sulfonyl)-2,9-diazaspiro[5.5]undecane] | < 100 | < 100
CC(C)(C)CCN1CCC2(CC1)CCN(S(=O)(=O)c1ccc(N3CCOCC3=O)nc1)CC2 [Example 131, 4-(5-((9-(3,3-Dimethylbutyl)-3,9-diazaspiro[5.5]undecan-3-yl)sulfonyl)pyridin-2-yl)morpholin-3-one] | 100 to 500 | < 100
CC(C)(C)CCN1CCC2(CC1)CCN(S(=O)(=O)c1ccc(N3CCCCC3=O)nc1)CC2 [Example 132, 1-(5-((9-(3,3-Dimethylbutyl)-3,9-diazaspiro[5.5]undecan-3-yl)sulfonyl)pyridin-2-yl)piperidin-2-one] | 100 to 500 | < 100
CC(C)(C)CCN1CCC2(CC1)CCN(S(=O)(=O)c1ccc(N3CCCC3=O)nc1)CC2 [Example 133, 1-(5-((9-(3,3-Dimethylbutyl)-3,9-diazaspiro[5.5]undecan-3-yl)sulfonyl)pyridin-2-yl)pyrrolidin-2-one] | 100 to 500 | < 100
CC(C)(C)CCN1CCC2(CC1)CCN(S(=O)(=O)c1ccc(N3CCOC3=O)nc1)CC2 [Example 134, 3-(5-((9-(3,3-Dimethylbutyl)-3,9-diazaspiro[5.5]undecan-3-yl)sulfonyl)pyridin-2-yl)oxazolidin-2-one] | 100 to 500 | < 100
O=C1OCCN1c1ccc(S(=O)(=O)N2CCC3(CCN(Cc4ccccc4)CC3)CC2)cn1 [Example 135, 3-(5-((9-Benzyl-3,9-diazaspiro[5.5]undecan-3-yl)sulfonyl)pyridin-2-yl)oxazolidin-2-one] | < 100 | < 100
CC(C)(C)CCN1CCCC2(CCN(S(=O)(=O)c3ccc(N4CCCC4=O)nc3)CC2)C1 [Example 136, 1-(5-((2-(3,3-Dimethylbutyl)-2,9-diazaspiro[5.5]undecan-9-yl)sulfonyl)pyridin-2-yl)pyrrolidin-2-one] | < 100 | < 100
CC(C)(C)CCN1CCCC2(CCN(S(=O)(=O)c3ccc(N4CCOC4=O)nc3)CC2)C1 [Example 137, 3-(5-((2-(3,3-Dimethylbutyl)-2,9-diazaspiro[5.5]undecan-9-yl)sulfonyl)pyridin-2-yl)oxazolidin-2-one] | < 100 | < 100
CC(C)(C)CCN1CCC2(CC1)CCN(S(=O)(=O)c1ccc(N3CCOC3=O)nc1)C2 [Example 138, 3-(5-((8-(3,3-Dimethylbutyl)-2,8-diazaspiro[4.5]decan-2-yl)sulfonyl)pyridin-2-yl)oxazolidin-2-one] | < 100 | < 100
CC(C)(C)CCN1CCC2(CC1)CCN(S(=O)(=O)c1ccc(N3CCCC3=O)nc1)C2 [Example 139, 1-(5-((8-(3,3-Dimethylbutyl)-2,8-diazaspiro[4.5]decan-2-yl)sulfonyl)pyridin-2-yl)pyrrolidin-2-one] | < 100 | < 100
CC(C)(C)CCN1CCC2(CC1)CCN(S(=O)(=O)c1cnc(N3CCOC3=O)c(F)c1)CC2 [Example 140, 3-(5-((9-(3,3-Dimethylbutyl)-3,9-diazaspiro[5.5]undecan-3-yl)sulfonyl)-3-fluoropyridin-2-yl)oxazolidin-2-one] | 100 to 500 | < 100
CC(C)(C)CCN1CCC2(CC1)CCN(S(=O)(=O)c1cnc(N3CCCC3=O)c(F)c1)CC2 [Example 141, 1-(5-((9-(3,3-Dimethylbutyl)-3,9-diazaspiro[5.5]undecan-3-yl)sulfonyl)-3-fluoropyridin-2-yl)pyrrolidin-2-one] | 100 to 500 | < 100
CN(Cc1ccccc1)C1CCN(S(=O)(=O)c2ccc(N3CCOC3=O)nc2)CC1 [Example 142, 3-(5-((4-(Benzyl(methyl)ami-no)piperidin-1-yl)sulfonyl)pyridin-2-yl)oxazolidin-2-one] | 100 to 500 | < 100
